Reference: patent US9049864B2, “Pyridazinone herbicidal compounds” (Syngenta Limited, priority 2012, dated 2015)

Key:
Test in all cases: Post-emergence herbicidal glasshouse test, percentage damage to the plant
Format in all cases: in vivo
Solanum nigrum (SOLNI) = tested on: Solanum nigrum (SOLNI)
Summary of the method: (§1)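 Activity appears as a score from 1 (0-19% damage) to 5 (80-100%), assessed 13 days after a post-emergence spray of 8-day-old plants. Comparative runs used 250, 500 and 1000 g/ha; the standard rate was 1000 g/ha, formulated in acetone/water (50:50) with 0.5% Tween 20.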

[1] = tested on: Echinochloa crus-galli (ECHCG)
Summary of the method: as §1

[2] = tested on: Alopecurus myosuroides (ALOMY)
Summary of the method: as §1

[3] = tested on: Ipomoea hederacea (IPOHE)
Summary of the method: as §1

Setaria faberi (SETFA) = tested on: Setaria faberi (SETFA)
Summary of the method: as §1

[4] = tested on: Amaranthus retoflexus (AMARE)
Summary of the method: as §1

[5] = post-emergence, 1000 g/ha, evaluated after 13 days
[6] = comparative experiment, rate 250 g/ha
[7] = comparative experiment, rate 500 g/ha
[8] = comparative experiment, rate 1000 g/ha

## COC(=O)Oc1c(C)nn(C)c(=O)c1-n1c(Cl)c(Cl)c2ccccc21 [Compound 3.004]
Solanum nigrum (SOLNI); [5]
  POST Application SOLNI, percentage damage (five point scale): 5 (5=80-100%)
[1]; [5]
  POST Application ECHCG, percentage damage (five point scale): 4 (4=60-79%)
[2]; [5]
  POST Application ALOMY, percentage damage (five point scale): 2 (2=20-39%)
[3]; [5]
  POST Application IPOHE, percentage damage (five point scale): 5 (5=80-100%)
Setaria faberi (SETFA); [5]
  POST Application SETFA, percentage damage (five point scale): 2 (2=20-39%)
[4]; [5]
  POST Application AMARE, percentage damage (five point scale): 5 (5=80-100%)

## COC(=O)Oc1c(C)nn(C)c(=O)c1-n1nc(Cl)c2ccccc21 [Compound 3.005]
Solanum nigrum (SOLNI); [5]
  POST Application SOLNI, percentage damage (five point scale): 5 (5=80-100%)
[1]; [5]
  POST Application ECHCG, percentage damage (five point scale): 3 (3=40-59%)
[2]; [5]
  POST Application ALOMY, percentage damage (five point scale): 1 (1=0-19%)
[3]; [5]
  POST Application IPOHE, percentage damage (five point scale): 5 (5=80-100%)
Setaria faberi (SETFA); [5]
  POST Application SETFA, percentage damage (five point scale): 1 (1=0-19%)
[4]; [5]
  POST Application AMARE, percentage damage (five point scale): 4 (4=60-79%)

## CC(=O)Oc1c(C)nn(C)c(=O)c1-n1nc(Cl)c2ccccc21 [Compound 3.006]
Solanum nigrum (SOLNI); [5]
  POST Application SOLNI, percentage damage (five point scale): 5 (5=80-100%)
[1]; [5]
  POST Application ECHCG, percentage damage (five point scale): 4 (4=60-79%)
[2]; [5]
  POST Application ALOMY, percentage damage (five point scale): 2 (2=20-39%)
[3]; [5]
  POST Application IPOHE, percentage damage (five point scale): 5 (5=80-100%)
Setaria faberi (SETFA); [5]
  POST Application SETFA, percentage damage (five point scale): 1 (1=0-19%)
[4]; [5]
  POST Application AMARE, percentage damage (five point scale): 4 (4=60-79%)

## Cc1nn(C)c(=O)c(-n2c(Cl)c(Cl)c3ccccc32)c1OC(=O)SC(C)(C)C [Compound 3.007]
Solanum nigrum (SOLNI); [5]
  POST Application SOLNI, percentage damage (five point scale): 5 (5=80-100%)
[1]; [5]
  POST Application ECHCG, percentage damage (five point scale): 1 (1=0-19%)
[2]; [5]
  POST Application ALOMY, percentage damage (five point scale): 1 (1=0-19%)
[3]; [5]
  POST Application IPOHE, percentage damage (five point scale): 5 (5=80-100%)
Setaria faberi (SETFA); [5]
  POST Application SETFA, percentage damage (five point scale): 1 (1=0-19%)
[4]; [5]
  POST Application AMARE, percentage damage (five point scale): 5 (5=80-100%)

## Cc1nn(C)c(=O)c(-n2c(Cl)c(Cl)c3ccccc32)c1OC(=O)C(C)(C)C [Compound 3.008]
Solanum nigrum (SOLNI); [5]
  POST Application SOLNI, percentage damage (five point scale): 5 (5=80-100%)
[1]; [5]
  POST Application ECHCG, percentage damage (five point scale): 3 (3=40-59%)
[2]; [5]
  POST Application ALOMY, percentage damage (five point scale): 2 (2=20-39%)
[3]; [5]
  POST Application IPOHE, percentage damage (five point scale): 5 (5=80-100%)
Setaria faberi (SETFA); [5]
  POST Application SETFA, percentage damage (five point scale): 1 (1=0-19%)
[4]; [5]
  POST Application AMARE, percentage damage (five point scale): 5 (5=80-100%)

## Cc1nn(C)c(=O)c(-n2c(Cl)c(Cl)c3ccccc32)c1OC(=O)c1ccc([N+](=O)[O-])cc1 [Compound 3.009]
Solanum nigrum (SOLNI); [5]
  POST Application SOLNI, percentage damage (five point scale): 5 (5=80-100%)
[1]; [5]
  POST Application ECHCG, percentage damage (five point scale): 1 (1=0-19%)
[2]; [5]
  POST Application ALOMY, percentage damage (five point scale): 1 (1=0-19%)
[3]; [5]
  POST Application IPOHE, percentage damage (five point scale): 5 (5=80-100%)
Setaria faberi (SETFA); [5]
  POST Application SETFA, percentage damage (five point scale): 1 (1=0-19%)
[4]; [5]
  POST Application AMARE, percentage damage (five point scale): 5 (5=80-100%)

## Cc1nn(C)c(=O)c(-n2c(Cl)c(Cl)c3ccccc32)c1OC(=O)OCC(C)C [Compound 3.010]
Solanum nigrum (SOLNI); [5]
  POST Application SOLNI, percentage damage (five point scale): 5 (5=80-100%)
[1]; [5]
  POST Application ECHCG, percentage damage (five point scale): 3 (3=40-59%)
[2]; [5]
  POST Application ALOMY, percentage damage (five point scale): 1 (1=0-19%)
[3]; [5]
  POST Application IPOHE, percentage damage (five point scale): 5 (5=80-100%)
Setaria faberi (SETFA); [5]
  POST Application SETFA, percentage damage (five point scale): 1 (1=0-19%)
[4]; [5]
  POST Application AMARE, percentage damage (five point scale): 5 (5=80-100%)

## Cc1nn(C)c(=O)c(-n2c(Cl)c(Cl)c3ccccc32)c1OC(=O)OC(C)C [Compound 3.011]
Solanum nigrum (SOLNI); [5]
  POST Application SOLNI, percentage damage (five point scale): 5 (5=80-100%)
[1]; [5]
  POST Application ECHCG, percentage damage (five point scale): 4 (4=60-79%)
[2]; [5]
  POST Application ALOMY, percentage damage (five point scale): 1 (1=0-19%)
[3]; [5]
  POST Application IPOHE, percentage damage (five point scale): 5 (5=80-100%)
Setaria faberi (SETFA); [5]
  POST Application SETFA, percentage damage (five point scale): 2 (2=20-39%)
[4]; [5]
  POST Application AMARE, percentage damage (five point scale): 5 (5=80-100%)

## CC1=NN(C)C(=O)C(n2c(C)cc3ccccc32)C1=O (stereo not drawn) [Compound 4.026]
Solanum nigrum (SOLNI); [5]
  POST Application SOLNI, percentage damage (five point scale): 5 (5=80-100%)
[1]; [5]
  POST Application ECHCG, percentage damage (five point scale): 2 (2=20-39%)
[2]; [5]
  POST Application ALOMY, percentage damage (five point scale): 2 (2=20-39%)
[3]; [5]
  POST Application IPOHE, percentage damage (five point scale): 5 (5=80-100%)
Setaria faberi (SETFA); [5]
  POST Application SETFA, percentage damage (five point scale): 3 (3=40-59%)
[4]; [5]
  POST Application AMARE, percentage damage (five point scale): 4 (4=60-79%)

## CC1=NN(C)C(=O)C(n2c(C)c(Cl)c3ccccc32)C1=O (stereo not drawn) [Compound 4.027]
Solanum nigrum (SOLNI); [5]
  POST Application SOLNI, percentage damage (five point scale): 5 (5=80-100%)
[1]; [5]
  POST Application ECHCG, percentage damage (five point scale): 5 (5=80-100%)
[2]; [5]
  POST Application ALOMY, percentage damage (five point scale): 3 (3=40-59%)
[3]; [5]
  POST Application IPOHE, percentage damage (five point scale): 5 (5=80-100%)
Setaria faberi (SETFA); [5]
  POST Application SETFA, percentage damage (five point scale): 4 (4=60-79%)
[4]; [5]
  POST Application AMARE, percentage damage (five point scale): 5 (5=80-100%)

## CC1=NN(C)C(=O)C(n2nc(C(F)(F)F)cc2C)C1=O (stereo not drawn) [Compound A, reference compound]
Solanum nigrum (SOLNI); [6]
  POST Application SOLNI, percentage damage (five point scale): 3 (3=40-59%)
Solanum nigrum (SOLNI); [7]
  POST Application SOLNI, percentage damage (five point scale): 4 (4=60-79%)
Solanum nigrum (SOLNI); [8]
  POST Application SOLNI, percentage damage (five point scale): 5 (5=80-100%)
[1]; [6]
  POST Application ECHCG, percentage damage (five point scale): 1 (1=0-19%)
[1]; [7]
  POST Application ECHCG, percentage damage (five point scale): 2 (2=20-39%)
[1]; [8]
  POST Application ECHCG, percentage damage (five point scale): 3 (3=40-59%)
[2]; [6]
  POST Application ALOMY, percentage damage (five point scale): 1 (1=0-19%)
[2]; [7]
  POST Application ALOMY, percentage damage (five point scale): 1 (1=0-19%)
[2]; [8]
  POST Application ALOMY, percentage damage (five point scale): 2 (2=20-39%)
[3]; [6]
  POST Application IPOHE, percentage damage (five point scale): 4 (4=60-79%)
[3]; [7]
  POST Application IPOHE, percentage damage (five point scale): 5 (5=80-100%)
[3]; [8]
  POST Application IPOHE, percentage damage (five point scale): 5 (5=80-100%)
Setaria faberi (SETFA); [6]
  POST Application SETFA, percentage damage (five point scale): 1 (1=0-19%)
Setaria faberi (SETFA); [7]
  POST Application SETFA, percentage damage (five point scale): 1 (1=0-19%)
Setaria faberi (SETFA); [8]
  POST Application SETFA, percentage damage (five point scale): 2 (2=20-39%)
[4]; [6]
  POST Application AMARE, percentage damage (five point scale): 3 (3=40-59%)
[4]; [7]
  POST Application AMARE, percentage damage (five point scale): 4 (4=60-79%)
[4]; [8]
  POST Application AMARE, percentage damage (five point scale): 4 (4=60-79%)
